Data: article PMC6364417, “Kinase inhibitor library screening identifies synergistic drug combinations effective in sensitive and resistant melanoma cells” (Journal of Experimental & Clinical Cancer Research : CR, 2019)
Counter-ions that a name gives are not always drawn.

Key:
Experiment in all cases: Kinase inhibitor library screening, PrestoBlue cell viability, 1 or 10 μM, 72 h
[1] = system: A375-GP cells (Dabrafenib-resistant); settings: for viability at 1 µM / viability at 10 µM: Homo sapiens, A-375, 72 h; for viability at 1 µM: read-out: cell viability, A375 GP, 1μΜ; for viability at 10 µM: read-out: cell viability, A375 GP, 10μΜ
A375 cells (parental) = settings: for viability at 1 µM / viability at 10 µM: Homo sapiens, A-375, 72 h; for viability at 1 µM: read-out: cell viability, A375 Parental, 1μΜ; for viability at 10 µM: read-out: cell viability, A375 Parental, 10μΜ
[2] = system: IGR37-XP cells (Vemurafenib-resistant); settings: for viability at 1 µM / viability at 10 µM: Homo sapiens, IGR-37, 72 h; for viability at 1 µM: read-out: cell viability, IGR37 XP, 1μΜ; for viability at 10 µM: read-out: cell viability, IGR37 XP, 10μΜ
[3] = system: 501Mel-GP cells (Dabrafenib-resistant); settings: 72 h; for viability at 1 µM / viability at 10 µM: Homo sapiens; for viability at 1 µM: read-out: cell viability, 501Mel GP, 1μΜ; for viability at 10 µM: read-out: cell viability, 501Mel GP, 10μΜ
[4] = system: IGR37-GP cells (Dabrafenib-resistant); settings: for viability at 1 µM / viability at 10 µM: Homo sapiens, IGR-37, 72 h; for viability at 1 µM: read-out: cell viability, IGR37 GP, 1μΜ; for viability at 10 µM: read-out: cell viability, IGR37 GP, 10μΜ
501Mel cells (parental) = settings: 72 h; for viability at 1 µM / viability at 10 µM: Homo sapiens; for viability at 1 µM: read-out: cell viability, 501Mel Parental, 1μΜ; for viability at 10 µM: read-out: cell viability, 501Mel Parental, 10μΜ
Procedure, shortened: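 Two concentrations of every kinase inhibitor were tested on each melanoma line and its resistant counterparts, and cell survival was quantified by PrestoBlue against untreated wells.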

IGR37 cells (parental) = settings: for viability at 1 µM / viability at 10 µM: Homo sapiens, IGR-37, 72 h; for viability at 1 µM: read-out: cell viability, IGR37 Parental, 1μΜ; for viability at 10 µM: read-out: cell viability, IGR37 Parental, 10μΜ
[5] = system: A375-XP cells (Vemurafenib-resistant); settings: for viability at 1 µM / viability at 10 µM: Homo sapiens, A-375, 72 h; for viability at 1 µM: read-out: cell viability, A375 XP, 1μΜ; for viability at 10 µM: read-out: cell viability, A375 XP, 10μΜ
[6] = system: 501Mel-XP cells (Vemurafenib-resistant); settings: 72 h; for viability at 1 µM / viability at 10 µM: Homo sapiens; for viability at 1 µM: read-out: cell viability, 501Mel XP, 1μΜ; for viability at 10 µM: read-out: cell viability, 501Mel XP, 10μΜ

Work on `Cc1cc(Nc2cc(N3CCN(C)CC3)nc(/C=C/c3ccccc3)n2)n[nH]1` [ENMD-2076] yielded a viability at 1 µM [1] of 65.8%, a viability at 10 µM [1] of 20.9% and a viability at 1 µM (A375 cells (parental)) of 67.6%. For the same molecule, the viability at 10 µM (A375 cells (parental)) was 21.2%, the viability at 1 µM [2] was 89.3% and the viability at 10 µM [2] was 2.2%. It also gave a viability at 1 µM [3] of 99.4%, a viability at 10 µM [3] of 25.5% and a viability at 1 µM [4] of 90.4%. For the same molecule, the viability at 10 µM [4] was 5.2%, the viability at 1 µM (501Mel cells (parental)) was 97% and the viability at 10 µM (501Mel cells (parental)) was 3.4%. The viability at 1 µM (IGR37 cells (parental)) was 96.5%, the viability at 10 µM (IGR37 cells (parental)) was 25.6% and the viability at 1 µM [5] was 79.9%. The viability at 10 µM [5] was 19.2%, the viability at 1 µM [6] was 69.3% and the viability at 10 µM [6] was 1.1%.

With `Cn1cc(C2=C(c3cn(C4CCN(Cc5ccccn5)CC4)c4ccccc34)C(=O)NC2=O)c2ccccc21` [Enzastaurin (LY317615)] the “Cell viability in kinase inhibitor library screening, A375 GP, 1μΜ” value ([1]; A375 GP, 1μΜ, 72 h) was 97.4, the “Cell viability in kinase inhibitor library screening, A375 GP, 10μΜ” value ([1]; A375 GP, 10μΜ, 72 h) was 58.1 and the “Cell viability in kinase inhibitor library screening, A375 Parental, 10μΜ” value (A375 cells (parental); A375 Parental, 10μΜ, 72 h) was 55.3. The “Cell viability in kinase inhibitor library screening, A375 Parental, 1μΜ” value (A375 cells (parental); A375 Parental, 1μΜ, 72 h) was 99.1, the Cell viability in kinase inhibitor library screening, IGR37 XP, 10μΜ ([2]; IGR37 XP, 10μΜ, 72 h) was 31.7% and the “Cell viability in kinase inhibitor library screening, IGR37 XP, 1μΜ” value ([2]; IGR37 XP, 1μΜ, 72 h, in %) was 98.3. The “Cell viability in kinase inhibitor library screening, 501Mel GP, 1μΜ” value ([3]; 501Mel GP, 1μΜ, in %) was 92.5, the “Cell viability in kinase inhibitor library screening, 501Mel GP, 10μΜ” value ([3]; 501Mel GP, 10μΜ, in %) was 54.6 and the Cell viability in kinase inhibitor library screening, IGR37 GP, 10μΜ ([4]; IGR37 GP, 10μΜ, 72 h) was 58.7%. The “Cell viability in kinase inhibitor library screening, IGR37 GP, 1μΜ” value ([4]; IGR37 GP, 1μΜ, 72 h, in %) was 100.0, the “Cell viability in kinase inhibitor library screening, 501Mel Parental, 1μΜ” value (501Mel cells (parental); 501Mel Parental, 1μΜ, in %) was 78.4 and the “Cell viability in kinase inhibitor library screening, 501Mel Parental, 10μΜ” value (501Mel cells (parental); 501Mel Parental, 10μΜ, in %) was 63.8. The “Cell viability in kinase inhibitor library screening, IGR37 Parental, 10μΜ” value (IGR37 cells (parental); IGR37 Parental, 10μΜ, 72 h, in %) was 82.6, the “Cell viability in kinase inhibitor library screening, A375 XP, 1μΜ” value ([5]; A375 XP, 1μΜ, 72 h) was 103.5 and the “Cell viability in kinase inhibitor library screening, A375 XP, 10μΜ” value ([5]; A375 XP, 10μΜ, 72 h) was 66.7. For the same molecule, the “Cell viability in kinase inhibitor library screening, 501Mel XP, 1μΜ” value ([6]; 501Mel XP, 1μΜ, in %) was 85.4 and the “Cell viability in kinase inhibitor library screening, 501Mel XP, 10μΜ” value ([6]; 501Mel XP, 10μΜ, in %) was 48.1.

Molecule `C#Cc1cccc(Nc2ncnc3cc(OCCOC)c(OCCOC)cc23)c1` [Erlotinib HCl] has a viability at 1 µM [1] of 96.2%, a viability at 10 µM [1] of 69.1% and a viability at 1 µM (A375 cells (parental)) of 100%. It also gave a viability at 10 µM (A375 cells (parental)) of 73.4%, a viability at 1 µM [2] of 92.4% and a viability at 10 µM [2] of 51.9%. The viability at 1 µM [3] was 95%, the viability at 10 µM [3] was 61.2% and the viability at 1 µM [4] was 93.1%. For the same molecule, the viability at 10 µM [4] was 67.5%, the viability at 1 µM (501Mel cells (parental)) was 97.2% and the viability at 10 µM (501Mel cells (parental)) was 84.3%. It also gave a viability at 1 µM (IGR37 cells (parental)) of 95.5%, a viability at 10 µM (IGR37 cells (parental)) of 92% and a viability at 1 µM [5] of 100%. For the same molecule, the viability at 10 µM [5] was 83.4%, the viability at 1 µM [6] was 86.3% and the viability at 10 µM [6] was 38%.

`CN1CC[C@H](c2c(O)cc(O)c3c(=O)cc(-c4ccccc4Cl)oc23)[C@H](O)C1` [Flavopiridol hydrochloride] was tested, and the “cell viability (kinase inhibitor library screening)” value ([1]; A375 GP, 1μΜ, 72 h) was 4.6%, the “cell viability (kinase inhibitor library screening)” value ([1]; A375 GP, 10μΜ, 72 h) was 3.0% and the “cell viability (kinase inhibitor library screening)” value (A375 cells (parental); A375 Parental, 10μΜ, 72 h) was 7.2%. For the same molecule, the “cell viability (kinase inhibitor library screening)” value (A375 cells (parental); A375 Parental, 1μΜ, 72 h) was 7.0%, the “cell viability (kinase inhibitor library screening)” value ([2]; IGR37 XP, 1μΜ, 72 h) was 2.9% and the “cell viability (kinase inhibitor library screening)” value ([2]; IGR37 XP, 10μΜ, 72 h) was 3.2%. The “cell viability (kinase inhibitor library screening)” value ([3]; 501Mel GP, 1μΜ) was 0.662%, the “cell viability (kinase inhibitor library screening)” value ([3]; 501Mel GP, 10μΜ) was 0.4% and the “cell viability (kinase inhibitor library screening)” value ([4]; IGR37 GP, 1μΜ, 72 h) was 4.5%. For the same molecule, the “cell viability (kinase inhibitor library screening)” value ([4]; IGR37 GP, 10μΜ, 72 h) was 3.8%, the “cell viability (kinase inhibitor library screening)” value (501Mel cells (parental); 501Mel Parental, 1μΜ) was 1.1% and the “cell viability (kinase inhibitor library screening)” value (501Mel cells (parental); 501Mel Parental, 10μΜ) was 1.3%. The “cell viability (kinase inhibitor library screening)” value (IGR37 cells (parental); IGR37 Parental, 1μΜ, 72 h) was 2.2%, the “cell viability (kinase inhibitor library screening)” value (IGR37 cells (parental); IGR37 Parental, 10μΜ, 72 h) was 2.2% and the “cell viability (kinase inhibitor library screening)” value ([5]; A375 XP, 1μΜ, 72 h) was 5.6%. For the same molecule, the “cell viability (kinase inhibitor library screening)” value ([5]; A375 XP, 10μΜ, 72 h) was 5.1%, the “cell viability (kinase inhibitor library screening)” value ([6]; 501Mel XP, 1μΜ) was 0.473% and the “cell viability (kinase inhibitor library screening)” value ([6]; 501Mel XP, 10μΜ) was 0.3%.
